Laboratory results published in ChEMBL document CHEMBL4808223, “Design, synthesis and biological activity of bis-sulfonyl-BODIPY probes for tumor cell imaging” (Bioorg Med Chem Lett, 2021).

Key:
[1] = Drug uptake in tumor of mouse xenografted with human HeLa cells administered intraperitoneally and measured after 30 mins by fluorescence imaging analysis; assay type: ADME, tissue-based, Neoplasm; conditions: in vivo, ip, 0.5 h
HeLa [2] = test: Cytotoxicity against human HeLa cells by MTT assay; assay type: functional, cell-based
HCT-116 = test: Cytotoxicity against human HCT-116 cells by MTT assay; assay type: functional, cell-based
HeLa [3] = test: Induction of apoptosis in human HeLa cells assessed as necrotic cells measured after 12 hrs by Annexin-V-FITC/propidium iodide staining based flow cytometry; assay type: functional
HeLa [4] = test: Induction of apoptosis in human HeLa cells assessed as early apoptotic cells measured after 12 hrs by Annexin-V-FITC/propidium iodide staining based flow cytometry; assay type: functional
[5] = Drug uptake in human HeLa cells assessed as increase in fluorescence intensity at 10 uM incubated for 24 hrs by DAPI staining based confocal microscopic analysis; assay type: ADME, cell-based
L02 = test: Cytotoxicity against human L02 cells by MTT assay; assay type: cell-based
HeLa [6] = test: Induction of apoptosis in human HeLa cells assessed as viable cells measured after 12 hrs by Annexin-V-FITC/propidium iodide staining based flow cytometry; assay type: functional
HeLa [7] = test: Induction of apoptosis in human HeLa cells assessed as late apoptotic cells measured after 12 hrs by Annexin-V-FITC/propidium iodide staining based flow cytometry; assay type: functional

Structure (SMILES) | Drug uptake [1] | IC50 (HeLa [2]) [µM] | IC50 (HCT-116) [µM] | Activity (HeLa [3]) [%] | Activity (HeLa [4]) [%] | Drug uptake [5] | IC50 (L02) [µM] | Activity (HeLa [6]) [%] | Activity (HeLa [7]) [%]
CCC1=C(C)C2=C(c3ccccc3)c3ccc(NCCNCC(=O)c4ccc(OS(=O)(=O)c5ccccc5)cc4OS(=O)(=O)c4ccccc4)n3[B-](F)(F)[N+]2=C1C | Active | 89.1 | 93.1 | 0.91 | 0.24 | Active | 53.3 | 96.38 | 2.46
CCC1=C(C)C2=C(c3ccccc3)c3ccc(NCCNCC(=O)c4ccc(OS(C)(=O)=O)cc4OS(C)(=O)=O)n3[B-](F)(F)[N+]2=C1C | – | 95.5 | 101 | – | – | Active | 41.7 | – | –
CCC1=C(C)C2=C(c3ccccc3)c3ccc(NCCN)n3[B-](F)(F)[N+]2=C1C | – | – | – | – | – | Active | – | – | –
